Test results: patent publication US10802016B2, “Microdroplet based bioassay platform” (Northeastern University, priority 2015, dated 2020)

System: DC
Assay: LPS induced IL-6 secretion from single dendritic cells in droplets
Format: cell-based, mouse
Conditions: single DC co-encapsulated with LPS; versus droplets with no LPS
Source text: FIG. 16A is a schematic illustration of […] carried out in a microdroplet.
The activation and monitoring of live single cells for secretion and cell surface markers have been measured simultaneously. In particular, droplet based technology can be applied to simultaneously stimulate mouse DC maturation with an immunological adjuvant, lipopolysaccharide (LPS), and to monitor two phenotypic markers of DCs. The maturation phenotype of the live DC was followed by measuring CD86 expression and IL-6 secretion. DC were co-encapsulated with LPS and bioassay reagents (microsphere sensors and antibodies). This method made it possible to distinguish the responses of individual cells to LPS stimulation in the confined volume of droplets. In addition to CD86, LPS induced IL-6 secretion could be monitored from the same encapsulated single DCs (FIG. 16B). The signal was detected in droplets after 10 min in the array.

Substance: lipopolysaccharide [LPS]
- IL-6 levels in droplets: significantly higher
